Data on 22 compounds can be found in ChEMBL document CHEMBL3352746, “Synthesis and anticancer activity of quinopimaric and maleopimaric acids’ derivatives” (Bioorg Med Chem, 2014).

The structures appear in SMILES notation. Activity calls are given as the source filed them. No cut-off for these calls is given here.

Holding throughout (type): functional
Assay [1] is described as follows: (§1) Cytotoxicity against human NCI60 cells assessed as cell growth at 10 uM. The following applies: read-out: Activity.
Assay [2] deals with TK-10. Put plainly: Cytotoxicity against human TK10 cells assessed as cell growth at 10 uM. The following applies: read-out: Activity.
Assay [3] concerns NCI60. Described as §1.
Assay [4] concerns RPMI-8226. Description: Cytotoxicity against human RPMI8226 cells assessed as cell growth at 10 uM. Particulars: read-out: Activity.
Assay [5] concerns T47D. Put plainly: Cytotoxicity against human T47D cells assessed as cell growth at 10 uM. The following applies: read-out: Activity.
The test system of assay [6] is HCC 2998. Put plainly: Cytotoxicity against human HCC2998 cells assessed as cell growth at 10 uM. Particulars: read-out: Activity.
Assay [7] deals with SR. Description: Cytotoxicity against human SR cells assessed as cell growth at 10 uM. The following applies: read-out: Activity.
Assay [8] in a line: Cytotoxicity against human HL60 cells assessed as cell growth at 10 uM. Particulars: HL-60, read-out: Activity.

With `COC(=O)[C@]1(C)CCC[C@]2(C)[C@H]3C[C@H]4C5C[C@]3(CC[C@H]21)[C@@H]1C(=O)CC[C@H](OC5(C)C)[C@@H]14`, the growth at 10 µM in assay [1] was over 32%.

On to `COC(=O)[C@]1(C)CCC[C@]2(C)[C@H]3C[C@@H]4[C@H]5[C@@H]6CCC(=O)[C@H]5[C@@]3(CC[C@H]21)CC4(C(C)C)O6`, for which the growth at 10 µM in assay [1] was over 32%.

In the case of `COC(=O)[C@]1(C)CCC[C@]2(C)[C@H]3C[C@@H]4[C@H]5[C@@H]6Cc7cn[nH]c7[C@H]5[C@@]3(CC[C@H]21)CC4(C(C)C)O6`, the growth at 10 µM in assay [1] is over 32%. `COC(=O)[C@]1(C)CCC[C@]2(C)[C@H]3C[C@@H]4[C@H]5[C@@H]6CC/C(=N\O)[C@H]5[C@@]3(CC[C@H]21)CC4(C(C)C)O6`: the growth at 10 µM in assay [1] is over 32%. For `COC(=O)[C@]1(C)CCC[C@]2(C)[C@H]3C[C@@H]4[C@H]5[C@@H]6Cc7c([nH]c8ccccc78)[C@H]5[C@@]3(CC[C@H]21)CC4(C(C)C)O6`, in assay [1], the growth at 10 µM is over 32%. On to `CC(C)C1=C[C@@]23CC[C@@H]4[C@](C)(CCC[C@@]4(C)C(=O)O)[C@H]2C[C@@H]1[C@H]1C(=O)CCC(=O)[C@H]13`, for which the growth at 10 µM in assay [2] amounted to 28.4%. In addition, the result in assay [3] was Active. On to `COC(=O)CCNC(=O)[C@]1(C)CCC[C@]2(C)[C@H]3C[C@H]4C(C(C)C)=C[C@]3(CC[C@H]21)[C@@H]1C(=O)CC[C@H](O)[C@@H]14`, for which, in assay [1], the growth at 10 µM was over 32%. On to `COC(=O)[C@]1(C)CCC[C@]2(C)[C@H]3C[C@@H]4[C@H]5[C@@H]6Cc7cnn(-c8ccccc8)c7[C@H]5[C@@]3(CC[C@H]21)CC4(C(C)C)O6`, for which the growth at 10 µM in assay [1] was over 32%. Take `CC(C)C1=C[C@]23CC[C@@H]4[C@](C)(CCC[C@@]4(C)C(=O)O)[C@H]2C[C@H]1[C@H]1C(=O)OC(=O)[C@H]13`: the growth at 10 µM in assay [1] is over 32%. Regarding `COC(=O)[C@]1(C)CCC[C@]2(C)[C@H]3C[C@H]4C(C(C)C)=C[C@]3(CC[C@H]21)[C@@H]1c2[nH]c3ccccc3c2-c2c([nH]c3ccccc23)[C@@H]14`, the growth at 10 µM in assay [1] is over 32%.

In the case of `COC(=O)[C@]1(C)CCC[C@]2(C)[C@H]3C[C@H]4C(C(C)C)=C[C@]3(CC[C@H]21)[C@@H]1/C(=N/O)CCC2(OCCO2)[C@@H]14`, the growth at 10 µM is 3.94% in assay [4], 30.7% in assay [5] and -9.91% in assay [6]. Moreover, the result in assay [3] was Active. For the compound `COC(=O)[C@]1(C)CCC[C@]2(C)[C@H]3C[C@H]4C(C(C)C)=C[C@]3(CC[C@H]21)[C@@H]1/C(=N/O)CC[C@H](O)[C@@H]14`, the growth at 10 µM in assay [1] is over 32%. For `COC(=O)[C@]1(C)CCC[C@]2(C)[C@H]3C[C@H]4C(C(C)C)=C[C@]3(CC[C@H]21)[C@@H]1c2[nH]c3ccccc3c2CC(=O)[C@@H]14`, in assay [1], the growth at 10 µM is over 32%. Same read-out and setting: the result for `COC(=O)[C@]1(C)CCC[C@]2(C)[C@H]3C[C@H]4C(C(C)C)=C[C@]3(CC[C@H]21)[C@@H]1NC(=O)CC[C@H](O)[C@@H]14` reads over 32%; that for `COC(=O)C(CCSC)NC(=O)[C@]1(C)CCC[C@]2(C)[C@H]3C[C@H]4C(C(C)C)=C[C@]3(CC[C@H]21)[C@@H]1C(=O)CC[C@H](OC(=O)CCC(=O)O)[C@@H]14` (stereo not given in full), over 32%; that for `COC(=O)CCNC(=O)[C@]1(C)CCC[C@]2(C)[C@H]3C[C@H]4C(C(C)C)=C[C@]3(CC[C@H]21)[C@@H]1C(=O)CCC(=O)[C@@H]14`, over 32%. `COC(=O)[C@]1(C)CCC[C@]2(C)[C@H]3C[C@@H]4[C@H]5[C@@H]6Cc7[nH]c(=S)[nH]c7[C@H]5[C@@]3(CC[C@H]21)CC4(C(C)C)O6`: the growth at 10 µM in assay [1] was over 32%. Still for that read-out and setting: the result for `COC(=O)[C@]1(C)CCC[C@]2(C)[C@H]3C[C@H]4C5C[C@]3(CC[C@H]21)[C@@H]1/C(=N/O)CC[C@H](OC5(C)C)[C@@H]14` reads over 32%.

For `COC(=O)[C@]1(C)CCC[C@]2(C)[C@H]3C[C@H]4C(C(C)C)=C[C@]3(CC[C@H]21)[C@@H]1C(=O)[C@H]2O[C@H]2C(=O)[C@@H]14`, the outcome in assay [3] was Active. Further, in assay [7], the growth at 10 µM is 8.07%. With `COC(=O)[C@]1(C)CCC[C@]2(C)[C@H]3C[C@H]4C(C(C)C)=C[C@]3(CC[C@H]21)[C@@H]1NC(=O)CCC2(OCCO2)[C@@H]14`, in assay [1], the growth at 10 µM was over 32%. As for `COC(=O)[C@]1(C)CCC[C@]2(C)[C@H]3C[C@H]4C(C(C)C)=C[C@]3(CC[C@H]21)[C@@H]1C(=O)CCC2(OCCO2)[C@@H]14`, the growth at 10 µM in assay [8] came out at 28.7%; in assay [7], 31.2%. Also, in assay [3], the result was Active. In the case of `COC(=O)[C@]1(C)CCC[C@@]2(C)[C@H]1CC[C@]13C=C(C(C)C)[C@H](C[C@H]21)C1=C3C(=O)C=CC1=O`, the outcome in assay [3] was Active. Besides, in assay [7], the growth at 10 µM was 15.6%.
